# According to the NIST ThermoML archive (doi:10.1016/j.jct.2017.09.007):
# ± gives the expanded uncertainty stated by the source.
# Columns and labels:
# [1] = molar heat capacity at constant pressure; conditions: 298.15 K, 100 kPa, Small sample (50 mg) DSC
# [2] = Molar enthalpy of transition or fusion; conditions: Crystal; DSC
# [3] = Crystal; DTA
molar heat capacity at constant pressure ([1]; Liquid),Molar enthalpy of transition or fusion [2],Normal melting temperature [3],molar heat capacity at constant pressure ([1]; Crystal),SMILES
283.07 ± 4.4 J/K/mol,5.78 ± 0.146 kcal/mol,1.33 ± 0.53 °C,,CCOC(=O)c1ccccc1O [ethyl 2-hydroxybenzoate]
,6.17 ± 0.146 kcal/mol,72.23 ± 0.46 °C,217.22 ± 3.4 J/K/mol,CCOC(=O)c1cccc(O)c1 [ethyl 3-hydroxybenzoate]
,6.57 ± 0.151 kcal/mol,115.70 ± 0.45 °C,233.93 ± 3.6 J/K/mol,CCOC(=O)c1ccc(O)cc1 [ethyl 4-hydroxybenzoate]
